Among the data in BindingDB's records for doi:10.7270/Q2MK6B9H (Nmmlsc, 2009) are EC50 values, retold here.

For orientation: EC50 means the concentration needed to bring the measured effect to its halfway point. Read a high EC50 as lower potency in that assay.

Molecules are shown by their SMILES.

The target in one test is Ras-related protein Rab-7a (Canis lupus familiaris, UniProt P18067). Nature of the test: inhibition of fluorescent GTP loading on Rab7 – biochemical, dog Rab7, bead multiplex flow cytometry, Bodipy-FL-GTP, pyrazoline series, SAR follow-up (AID 2041).
Chain of Ras-related protein Rab-7a (P18067 whole entry): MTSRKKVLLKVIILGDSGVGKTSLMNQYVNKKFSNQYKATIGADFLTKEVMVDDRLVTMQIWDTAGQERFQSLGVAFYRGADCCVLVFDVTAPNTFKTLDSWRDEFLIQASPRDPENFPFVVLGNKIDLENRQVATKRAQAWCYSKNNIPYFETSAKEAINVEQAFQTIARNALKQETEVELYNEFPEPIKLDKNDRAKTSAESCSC
Settings: not given
In turn, `Cc1onc(-c2ccccc2)c1-c1ccc(S(N)(=O)=O)cc1` registered an EC50 above 30 µM. On the same count and under the same terms, to `O=[N+]([O-])c1ccc([N+]2=N[C-](c3ccccc3)CC2c2ccccc2)cc1` (centres undefined) belongs above 30 µM; to `Brc1ccc(N2N=C(c3ccccc3)CC2c2ccccc2)cc1` (centres undefined), above 30 µM; to `COc1ccccc1C1CC(c2ccccc2)=NN1c1ccccc1` (centres undefined), above 30 µM. `Clc1cccc(N2N=C(c3ccccc3)CC2c2ccccc2)c1` (centres undefined) displayed an EC50 above 30 µM.

In turn, `CC(=O)Oc1ccc(C2=NN(c3ccccc3)C(c3ccccc3)C2)cc1` (centres undefined) displayed an EC50 above 30 µM.

As for `O=C(O)c1ccc(N2N=C(c3ccccc3)CC2c2ccccc2)cc1` (centres undefined), the EC50 is above 30 µM. `COc1ccc(C2=NN(c3ccccc3)C(c3ccccc3C(F)(F)F)C2)cc1` (centres undefined) came in with an EC50 above 30 µM. Regarding `NS(=O)(=O)c1ccc(N2N=C(c3ccc(Cl)cc3)CC2c2ccccc2)cc1` (centres undefined), the EC50 was above 30 µM. Same read-out and setting: the result for `CCc1ccc(C2=NN(c3ccc(S(N)(=O)=O)cc3)C(c3ccc(F)cc3)C2)cc1` (centres undefined) reads above 30 µM; that for `CN(C)c1ccc(C2C[C-](c3ccccc3)N=[N+]2c2ccc([N+](=O)[O-])cc2)cc1` (centres undefined), above 30 µM. `COc1ccc(C2CC(c3ccc(F)cc3)=NN2c2cccc(F)c2)cc1OC` (centres undefined) displayed a 50% effective concentration (EC50) of 22.5 µM. In turn, `COc1ccc(C2CC(c3ccccc3)=NN2c2ccc(Cl)c(C(=O)O)c2)cc1` (centres undefined) registered an EC50 above 30 µM. On the same count and under the same terms, to `COc1ccc(C2CC(c3ccc(Cl)cc3)=NN2c2ccc(S(N)(=O)=O)cc2)cc1` (centres undefined) belongs above 30 µM. Compound `Cc1ccc(C2CC(c3ccccc3)=NN2c2ccc(S(N)(=O)=O)cc2)cc1` (centres undefined) gave an EC50 above 30 µM. Compound `Cc1cccc(C2CC(c3ccccc3)=NN2c2ccc(S(N)(=O)=O)cc2)c1` (centres undefined) registered an EC50 above 30 µM.

Consider `COc1ccc(C2CC(c3ccccc3OC)=NN2c2ccc(S(N)(=O)=O)cc2)cc1` (centres undefined), for which the concentration giving a half-maximal response (EC50) is above 30 µM. Still for that read-out and setting: to `COc1ccc(C2CC(c3ccc(C)cc3)=NN2c2ccc(S(N)(=O)=O)cc2)cc1` (centres undefined) belongs above 30 µM; to `COc1ccc(C2CC(c3cccc(C(F)(F)F)c3)=NN2c2ccc(S(N)(=O)=O)cc2)cc1` (centres undefined), above 30 µM. `COc1ccc(C2CC(c3cccc(N(C)C)c3)=NN2c2ccc(S(N)(=O)=O)cc2)cc1` (centres undefined) yielded an EC50 above 30 µM.

As to `COc1ccc(C2CC(c3cccnc3)=NN2c2ccc(S(N)(=O)=O)cc2)cc1` (centres undefined), the EC50 is above 30 µM. The same measure, in the same setting: the result for `COc1ccc(C2CC(c3ccncc3)=NN2c2ccc(S(N)(=O)=O)cc2)cc1` (centres undefined) reads above 30 µM; that for `Fc1ccccc1C1CC(c2ccc(Br)cc2)=NN1c1ccc(Br)cc1` (centres undefined) [2,5-bis(4-bromophenyl)-3-(2-fluorophenyl)-3,4-dihydropyrazole], above 30 µM. The compound `COc1ccc(C2CC(c3ccc(F)cc3)=NN2c2cc(Cl)ccc2Cl)cc1` (centres undefined) [2-(2,5-dichlorophenyl)-5-(4-fluorophenyl)-3-(4-methoxyphenyl)-3,4-dihydropyrazole] returned an EC50 of 11.1 µM. The compound `COc1ccc(C2=NN(c3ccc(Cl)c(Cl)c3)C(c3ccc(OC)cc3)C2)cc1` (centres undefined) [2-(3,4-dichlorophenyl)-3,5-bis(4-methoxyphenyl)-3,4-dihydropyrazole] returned an EC50 above 30 µM.

In turn, `Fc1ccc(C2=NN(c3cccc(Br)c3)C(c3ccccc3)C2)cc1` (centres undefined) [2-(3-bromophenyl)-5-(4-fluorophenyl)-3-phenyl-3,4-dihydropyrazole] had a concentration giving a half-maximal response (EC50) above 30 µM. `COc1ccc(C2CC(c3ccccc3)=NN2c2ccc(Cl)c(C(=O)O)c2)cc1OC` (centres undefined) [2-chloro-5-[3-(3,4-dimethoxyphenyl)-5-phenyl-3,4-dihydropyrazol-2-yl]benzoic acid] had an EC50 above 30 µM. As to `COc1ccc(C2=NN(c3cccc(F)c3)C(c3ccc(Cl)cc3)C2)cc1` (centres undefined) [3-(4-chlorophenyl)-2-(3-fluorophenyl)-5-(4-methoxyphenyl)-3,4-dihydropyrazole], the EC50 was above 30 µM. In the case of `COc1ccc(C2C[C-](c3ccccc3)N=[N+]2c2ccc([N+](=O)[O-])cc2)cc1` (centres undefined) [3-(4-methoxyphenyl)-2-(4-nitrophenyl)-5-phenyl-3,4-dihydropyrazole], the EC50 was above 30 µM.

`COc1ccc(C2CC(c3ccccc3)=NN2c2cccc(S(N)(=O)=O)c2)cc1` (centres undefined) [3-[3-(4-methoxyphenyl)-5-phenyl-3,4-dihydropyrazol-2-yl]benzenesulfonamide] yielded an EC50 above 30 µM.

As for `CN(C)c1ccc(C2CC(c3ccccc3)=NN2c2ccccc2)cc1` (centres undefined) [4-(2,5-diphenyl-3,4-dihydropyrazol-3-yl)-N,N-dimethylaniline], the EC50 was above 30 µM. Still for that read-out and setting: the result for `NS(=O)(=O)c1ccc(N2N=C(c3ccccc3)CC2c2ccccc2)cc1` (centres undefined) [4-(3,5-diphenyl-3,4-dihydropyrazol-2-yl)benzenesulfonamide] reads above 30 µM; that for `COc1ccc(C2=NN(c3ccc(S(N)(=O)=O)cc3)C(c3ccc(OC)cc3)C2)cc1` (centres undefined) [4-[3,5-bis(4-methoxyphenyl)-3,4-dihydropyrazol-2-yl]benzenesulfonamide], above 30 µM; that for `NS(=O)(=O)c1ccc(N2N=C(c3ccccc3)CC2c2ccccc2Br)cc1` (centres undefined) [4-[3-(2-bromophenyl)-5-phenyl-3,4-dihydropyrazol-2-yl]benzenesulfonamide], above 30 µM. Still for that read-out and setting: to `COc1ccccc1C1CC(c2ccccc2)=NN1c1ccc(S(N)(=O)=O)cc1` (centres undefined) [4-[3-(2-methoxyphenyl)-5-phenyl-3,4-dihydropyrazol-2-yl]benzenesulfonamide] belongs above 30 µM; to `COc1cccc(C2CC(c3ccccc3)=NN2c2ccc(S(N)(=O)=O)cc2)c1` (centres undefined) [4-[3-(3-methoxyphenyl)-5-phenyl-3,4-dihydropyrazol-2-yl]benzenesulfonamide], above 30 µM; to `NS(=O)(=O)c1ccc(N2N=C(c3ccccc3)CC2c2ccc(Cl)cc2)cc1` (centres undefined) [4-[3-(4-chlorophenyl)-5-phenyl-3,4-dihydropyrazol-2-yl]benzenesulfonamide], above 30 µM. Compound `COc1ccc(C2CC(c3ccc(C(F)(F)F)cc3)=NN2c2ccc(S(N)(=O)=O)cc2)cc1` (centres undefined) [4-[3-(4-methoxyphenyl)-5-[4-(trifluoromethyl)phenyl]-3,4-dihydropyrazol-2-yl]benzenesulfonamide] yielded an EC50 above 30 µM.

Consider `COc1ccc(C2CC(C)=NN2c2ccc(S(N)(=O)=O)cc2)cc1` (centres undefined) [4-[3-(4-methoxyphenyl)-5-methyl-3,4-dihydropyrazol-2-yl]benzenesulfonamide], for which the EC50 was above 30 µM.

For the compound `COc1ccc(C2CC(c3ccsc3)=NN2c2ccc(S(N)(=O)=O)cc2)cc1` (centres undefined) [4-[3-(4-methoxyphenyl)-5-thiophen-3-yl-3,4-dihydropyrazol-2-yl]benzenesulfonamide], the 50% effective concentration (EC50) was above 30 µM. In the case of `COc1ccc(C2CC(c3ccccc3Cl)=NN2c2ccc(S(N)(=O)=O)cc2)cc1` (centres undefined) [4-[5-(2-chlorophenyl)-3-(4-methoxyphenyl)-3,4-dihydropyrazol-2-yl]benzenesulfonamide], the EC50 is above 30 µM. In turn, `COc1ccc(C2CC(c3cccc(F)c3)=NN2c2ccc(S(N)(=O)=O)cc2)cc1` (centres undefined) [4-[5-(3-fluorophenyl)-3-(4-methoxyphenyl)-3,4-dihydropyrazol-2-yl]benzenesulfonamide] registered an EC50 above 30 µM.

`COc1ccc(C2CC(c3cccc(OC)c3)=NN2c2ccc(S(N)(=O)=O)cc2)cc1` (centres undefined) [4-[5-(3-methoxyphenyl)-3-(4-methoxyphenyl)-3,4-dihydropyrazol-2-yl]benzenesulfonamide]: the EC50 was above 30 µM.

`NS(=O)(=O)c1ccc(N2N=C(c3ccc(Br)cc3)CC2c2ccc(F)cc2)cc1` (centres undefined) [4-[5-(4-bromophenyl)-3-(4-fluorophenyl)-3,4-dihydropyrazol-2-yl]benzenesulfonamide] registered an EC50 above 30 µM. On the same count and under the same terms, to `COc1ccc(C2CC(c3ccc(F)cc3)=NN2c2ccc(S(N)(=O)=O)cc2)cc1` (centres undefined) [4-[5-(4-fluorophenyl)-3-(4-methoxyphenyl)-3,4-dihydropyrazol-2-yl]benzenesulfonamide] belongs above 30 µM. Consider `COc1ccc(-c2cc(-c3ccccc3)nn2-c2ccc(S(N)(=O)=O)cc2)cc1` [4-[5-(4-methoxyphenyl)-3-phenylpyrazol-1-yl]benzenesulfonamide], for which the EC50 was above 30 µM.

Regarding `COc1ccc(C2CC(C3CCCCC3)=NN2c2ccc(S(N)(=O)=O)cc2)cc1` (centres undefined) [4-[5-cyclohexyl-3-(4-methoxyphenyl)-3,4-dihydropyrazol-2-yl]benzenesulfonamide], the concentration for a half-maximal effect (EC50) was above 30 µM.

The compound `O=S(=O)(c1ccc(N2N=C(c3ccc(Br)cc3)CC2c2ccccc2)cc1)C(F)F` (centres undefined) [5-(4-bromophenyl)-2-[4-(difluoromethylsulfonyl)phenyl]-3-phenyl-3,4-dihydropyrazole] had an EC50 above 30 µM.

The compound `FC(F)(F)c1ccccc1C1CC(c2ccc(Br)cc2)=NN1c1ccccc1` (centres undefined) [5-(4-bromophenyl)-2-phenyl-3-[2-(trifluoromethyl)phenyl]-3,4-dihydropyrazole] had an EC50 above 30 µM. With `O=[N+]([O-])c1cccc(C2C[C-](c3ccc(F)cc3)N=[N+]2c2ccccc2)c1` (centres undefined) [5-(4-fluorophenyl)-3-(3-nitrophenyl)-2-phenyl-3,4-dihydropyrazole], the EC50 was above 30 µM. `Cc1ccc(-c2cc(C(F)(F)F)nn2-c2ccc(S(N)(=O)=O)cc2)cc1` [Celecoxib] gave an EC50 above 30 µM.

As to `COc1ccc(C2CC(c3ccc(N(C)C)cc3)=NN2c2ccc(S(N)(=O)=O)cc2)cc1` (centres undefined) [KUC103422N], the EC50 is above 30 µM. For `COc1ccc(C2CC(c3cccs3)=NN2c2ccc(S(N)(=O)=O)cc2)cc1` (centres undefined) [KUC103438N], the EC50 was above 30 µM.

On to `NS(=O)(=O)c1ccc(N2N=C(c3ccccc3)CC2c2ccccc2Cl)cc1` (centres undefined) [KUC103446N], for which the EC50 was above 30 µM. In turn, `COc1ccc(C2CC(C(C)(C)C)=NN2c2ccc(S(N)(=O)=O)cc2)cc1` (centres undefined) [KUC103450N] showed a concentration for a half-maximal effect (EC50) above 30 µM. `COc1ccc(C2CC(c3ccccc3C(F)(F)F)=NN2c2ccc(S(N)(=O)=O)cc2)cc1` (centres undefined) [KUC103474N] showed an EC50 above 30 µM.

The test is the same for the next values; noted with them: inactive by the depositor's call.
`Clc1ccc(N2N=C(c3ccccc3)CC2c2ccccc2)cc1` (centres undefined): the midpoint of the response, the EC50, lay at 6.64 µM. Compound `O=S(=O)(c1ccc(N2N=C(c3ccccc3)CC2c2ccccc2)cc1)C(F)F` (centres undefined) gave an EC50 of 0.508 µM. Regarding `COc1ccc(C2=NN(c3cccc(F)c3)C(c3ccc(OC)cc3)C2)cc1` (centres undefined) [2-(3-fluorophenyl)-3,5-bis(4-methoxyphenyl)-3,4-dihydropyrazole], the EC50 was found to be 0.104 µM.
